Measured values as given in article PMC12396409, “Screening and hit evaluation of a microbial metabolite library against the pathogenic Plasmodium falciparum and Toxoplasma gondii parasites” (International Journal for Parasitology: Drugs and Drug …, 2025).
Like-named read-outs stand apart in the source and are kept apart here. Where a SMILES comes first, the peptide text is derived from it. [ ]: non-standard residue; d: D form. dNMeL = CN[C@H](CC(C)C)C(=O)O; Hiv = CC(C)[C@H](O)C(=O)O

Assays:
[1] = test system: T. gondii RH strain (RH-Tub-eYFP) tachyzoites; assay: microbe, parasite or virus in culture; type: cell-based, Toxoplasma gondii
[2] = test system: P. falciparum 3D7 parasites; assay: P. falciparum growth inhibition assay, 2-cycle (120 h treatment), delayed-death screen and dose-response; type: cell-based, Plasmodium falciparum
[3] = test system: P. falciparum 3D7 parasites; assay: P. falciparum growth inhibition assay, 1-cycle (72 h treatment), SYBR DNA staining (library screen at 2 μg/mL and dose-response); type: cell-based, Plasmodium falciparum
[4] = T. gondii, 72 h, screen at 2 μg/mL, replicate 1
[5] = T. gondii, 72 h, screen at 2 μg/mL, replicate 2
[6] = P. falciparum, 120 h, screen at 2 μg/mL, replicate 1
[7] = P. falciparum, 120 h, screen at 2 μg/mL, replicate 2
[8] = P. falciparum, 72 h, screen at 2 μg/mL, replicate 1
[9] = P. falciparum, 72 h, screen at 2 μg/mL, replicate 2
[10] = T. gondii, 72 h, parasite screen 2 μg/mL, % growth, replicate 1
[11] = T. gondii, 72 h, parasite screen 2 μg/mL, % growth, replicate 2
[12] = P. falciparum, 120 h, parasite screen 2 μg/mL, % growth, replicate 1
[13] = P. falciparum, 120 h, parasite screen 2 μg/mL, % growth, replicate 2
[14] = P. falciparum, 72 h, parasite screen 2 μg/mL, % growth, replicate 1
[15] = P. falciparum, 72 h, parasite screen 2 μg/mL, % growth, replicate 2
[16] = Plasmodium falciparum, 3D7, library screen at 2 μg/mL, 120 h, % growth, replicate 1, read-out: Pf_120h_%Growth_Rep1
[17] = Plasmodium falciparum, 3D7, library screen at 2 μg/mL, 120 h, % growth, replicate 2, read-out: Pf_120h_%Growth_Rep2
[18] = Plasmodium falciparum, 3D7, library screen at 2 μg/mL, 72 h, % growth, replicate 1, read-out: Pf_72h_%Growth_Rep1
[19] = Plasmodium falciparum, 3D7, library screen at 2 μg/mL, 72 h, % growth, replicate 2, read-out: Pf_72h_%Growth_Rep2

N[C@H](CO)[C@H](O)c1ccc([N+](=O)[O-])cc1 [Chloramphenicol base]
Tg_72h_%Growth_Rep1 [1, 4]: 134.60%
Tg_72h_%Growth_Rep2 [1, 5]: 99.67%
Pf_120h_%Growth_Rep1 [2, 6]: 102.72%
Pf_120h_%Growth_Rep2 [2, 7]: 92.34%
Pf_72h_%Growth_Rep1 [3, 8]: 86.96%
Pf_72h_%Growth_Rep2 [3, 9]: 86.58%

CC1(C)C=Cc2c(ccc3ccc(=O)oc23)O1 [Seselin]
Tg_72h_%Growth_Rep1 [1, 10]: 115.94%
Tg_72h_%Growth_Rep2 [1, 11]: 77.58%
Pf_120h_%Growth_Rep1 [2, 12]: 59.04%
Pf_120h_%Growth_Rep2 [2, 13]: 133.69%
Pf_72h_%Growth_Rep1 [3, 14]: 72.86%
Pf_72h_%Growth_Rep2 [3, 15]: 126.42%

C/C(=C\c1csc(C)n1)[C@@H]1C[C@@H]2O[C@]2(C)CCC[C@H](C)[C@H](O)[C@@H](C)C(=O)C(C)(C)[C@@H](O)CC(=O)O1 [Epothilone B]
percent parasite growth at 2 µg/mL ([1]; Toxoplasma gondii; library screen at 2 μg/mL, 72 h, % growth, replicate 1; read-out: Tg_72h_%Growth_Rep1): 5.99%
percent parasite growth at 2 µg/mL ([1]; Toxoplasma gondii; library screen at 2 μg/mL, 72 h, % growth, replicate 2; read-out: Tg_72h_%Growth_Rep2): 3.71%
activity at 2 µg/mL [2, 16]: 5.18%
activity at 2 µg/mL [2, 17]: 3.63%
activity at 2 µg/mL [3, 18]: 31.4%
activity at 2 µg/mL [3, 19]: -0.31%

CC(C)C[C@@H]1NC(=O)[C@H](C(C)C)NC(=O)[C@H](C(C)C)OC(=O)[C@@H](CC(C)C)N(C)C(=O)[C@@H](C(C)C)NC(=O)[C@H](C(C)C)OC1=O [Sporidesmolide I] (cyclo([Hiv]VL[Hiv][dV][dNMeL]))
Tg_72h_%Growth_Rep1 [1, 10]: 147.37%
Tg_72h_%Growth_Rep2 [1, 11]: 92.68%
Pf_120h_%Growth_Rep1 [2, 12]: 103.89%
Pf_120h_%Growth_Rep2 [2, 13]: 100.78%
Pf_72h_%Growth_Rep1 [3, 14]: 86.99%
Pf_72h_%Growth_Rep2 [3, 15]: 89.18%

CC(C)C[C@H](NC(=O)[C@@H](O)[C@H](N)Cc1ccccc1)C(=O)O [Bestatin]
percent parasite growth at 2 µg/mL ([1]; Toxoplasma gondii, 72 h, library screen at 2 μg/mL, 72 h, % growth, replicate 1; read-out: Tg_72h_%Growth_Rep1): 89.8%
percent parasite growth at 2 µg/mL ([1]; Toxoplasma gondii, 72 h, library screen at 2 μg/mL, 72 h, % growth, replicate 2; read-out: Tg_72h_%Growth_Rep2): 102%
activity at 2 µg/mL [2, 16]: 3.72%
activity at 2 µg/mL [2, 17]: 8.03%
activity at 2 µg/mL [3, 18]: 10.9%
activity at 2 µg/mL [3, 19]: 3.89%

CO[C@H]1[C@H](O)[C@@H](O)[C@H](n2c3c(Cl)cccc3c3c4c(c5c6cccc(Cl)c6[nH]c5c32)C(=O)NC4=O)O[C@@H]1CO [Rebeccamycin]
percent parasite growth at 2 µg/mL ([1]; Toxoplasma gondii, 72 h, T. gondii, 72 h, parasite screen 2 μg/mL, % growth, replicate 1; read-out: Tg_72h_%Growth_Rep1): 35.4%
percent parasite growth at 2 µg/mL ([1]; Toxoplasma gondii, 72 h, T. gondii, 72 h, parasite screen 2 μg/mL, % growth, replicate 2; read-out: Tg_72h_%Growth_Rep2): 70.9%
3) Fold change (72 h/120 h) ([2]; P. falciparum, growth at 72 h / growth at 120 h, 2 μg/mL): 1.2
activity at 2 µg/mL ([2]; Plasmodium falciparum, 3D7; P. falciparum, 2 μg/mL, 120 h; read-out: 2) Growth (%) at 120 h): 18.4%
activity at 2 µg/mL ([2]; Plasmodium falciparum, 3D7, P. falciparum, 120 h, parasite screen 2 μg/mL, % growth, replicate 1, read-out: Pf_120h_%Growth_Rep1): 22.3%
activity at 2 µg/mL ([2]; Plasmodium falciparum, 3D7, P. falciparum, 120 h, parasite screen 2 μg/mL, % growth, replicate 2, read-out: Pf_120h_%Growth_Rep2): 14.5%
activity at 2 µg/mL ([3]; Plasmodium falciparum, 3D7; P. falciparum, 2 μg/mL, 72 h; read-out: 1) Growth (%) at 72 h): 21.6%
activity at 2 µg/mL ([3]; Plasmodium falciparum, 3D7, P. falciparum, 72 h, parasite screen 2 μg/mL, % growth, replicate 1, read-out: Pf_72h_%Growth_Rep1): 22.6%
activity at 2 µg/mL ([3]; Plasmodium falciparum, 3D7, P. falciparum, 72 h, parasite screen 2 μg/mL, % growth, replicate 2, read-out: Pf_72h_%Growth_Rep2): 20.5%

CC(C)C[C@@H]1NC(=O)[C@@H]2CCCN2C1=O [Cyclo(L-Leu-L-Pro)]
Tg_72h_%Growth_Rep1 [1, 4]: 124.64%
Tg_72h_%Growth_Rep2 [1, 5]: 91.02%
Pf_120h_%Growth_Rep1 [2, 6]: 82.10%
Pf_120h_%Growth_Rep2 [2, 7]: 83.93%
Pf_72h_%Growth_Rep1 [3, 8]: 83.89%
Pf_72h_%Growth_Rep2 [3, 9]: 81.36%

COC1=CC(=O)C[C@@H](C)[C@]12Oc1c(Cl)c(OC)cc(OC)c1C2=O [BIA-G1212]
Tg_72h_%Growth_Rep1 ([1]; T. gondii RH, 72 h, library screen at 2 μg/mL, % growth, replicate 1): 123.15%
Tg_72h_%Growth_Rep2 ([1]; T. gondii RH, 72 h, library screen at 2 μg/mL, % growth, replicate 2): 96.50%
Pf_120h_%Growth_Rep1 ([2]; P. falciparum 3D7, 120 h, library screen at 2 μg/mL, % growth, replicate 1): 92.82%
Pf_120h_%Growth_Rep2 ([2]; P. falciparum 3D7, 120 h, library screen at 2 μg/mL, % growth, replicate 2): 104.36%
Pf_72h_%Growth_Rep1 ([3]; P. falciparum 3D7, 72 h, library screen at 2 μg/mL, % growth, replicate 1): 92.41%
Pf_72h_%Growth_Rep2 ([3]; P. falciparum 3D7, 72 h, library screen at 2 μg/mL, % growth, replicate 2): 108.96%
